Assay results from patent EP0157361A2, “Analysis method and means for detecting esterolytic and or proteolytic enzymes” (MILES INC., priority 1984, dated 1985).
“Also recorded” adds a separate entry of the source.

What was measured:
Assay type in all cases: biochemical
Leukozyten-Enzyme [1] = assay: Acceleration of cleavage of N-Tosyl-L-alanin-3-hydroxy-5-phenylpyrrolester by leukocytes (photometric, 330 nm); conditions: 250 µl N-Methylpyrrolidon
Method: (§1) Zu 2.25 ml des betreffenden Puffers fügte man je nach Substrat 50 - 250 µl N-Methylpyrrolidon als Lösungsvermittler und ergänzte das Volumen der Lösung mit Puffer auf 2.5 ml. Dann wurden 5 µl einer Lösung von 5 - 100 mg n-Undecanol in 1 ml N-Methylpyrrolidon sowie 5 µl einer Lösung von 2 mg Natriumdodecylsulfat (SDS) bzw. 4 mg der anderen Detergentien in 1 ml Wasser oder N-Methylpyrrolidon zu der Reaktionsmischung zugegeben. Nach gutem Durchmischen wurden 5 µl einer 10-1 molaren Substratlösung in N-Methylpyrrolidon, Dimethylformamid oder Dimethylsulfoxid in die Reaktionslösung gegeben und nach der Zugabe der Leukozytensuspension der Extinktionsanstieg bei der angegebenen Wellenlänge kontinuierlich verfolgt. Die Spontanhydrolyse des Substrats wird in einem Paralellansatz ohne Leukozytenzugabe anhand des Extinktionsanstiegs bestimmt.
(§2) Für die Bestimmung der Umsetzungsgeschwindigkeit wird der in der Enzymreaktion erhaltene Extinktionsanstieg um den für die Spontanhydrolyse ermittelten Betrag vermindert. Absolutwerte für die Substratspaltung (Mol. Min.^-1) können aus den Extinktionsdifferenzen mit Hilfe der molaren Extinktionskoeffizienten errechnet werden.
Beschleunigung der Spaltung von N-Tosyl-L-alanin-3-hydroxy-5-phenylpyrrolester mit Leukozyten in 0.1 M Tris-(hydroxymethyl)-aminomethan-Salzsäurepuffer (pH 8.8) in Gegenwart von 250 µl N-Methylpyrrolidon durch Zusätze von Aktivatoren und Detergentien.
Beschleunigung der Spaltung von N-Tosyl-L-alanin-3-hydroxy-5-phenylpyrrolester mit Leukozyten in diversen 0.1 M. Puffern (pH 8.4) unter Zusatz von 250 µl N-Methylpyrrolidon und Aktivatoren sowie Detergentien.

Leukozyten-Enzyme [2] = assay: Acceleration of cleavage of N-Tosyl-L-alanin-5-hydroxy-1,2-benzisothiazolylester by leukocytes (photometric, 325 nm); conditions: Aktivator 125 µg/Test, Tris-HCl pH 8.4, 100 µl N-Methylpyrrolidon
Method: as §1, §2
Beschleunigung der Spaltung von N-Tosyl-L-alanin-5-hydroxy-1,2-benzisothiazolylester mit Leukozyten in 0.1 M Tris-(hydroxymethyl)-aminomethan-Salzsäurepuffer (pH 8.4) in Gegenwart von 100 µl N-Methylpyrrolidon durch Zusätze von Aktivatoren und Detergentien.

Leukozyten-Enzyme [3] = assay: Acceleration of enzymatic cleavage of N-Tosyl-L-alanin-indoxylester by leukocytes (photometric, 360 nm); conditions: for relative Spaltungsgeschwindigkeit: 0.1 M Tris-HCl buffer pH 8.8, 360 nm; for rel.Geschwindigk.der Enzymreaktion, bezogen auf Decanol (0,125 µl/Test) = 1: 50 µl N-Methylpyrrolidon, SDS 10 µg/Test, Tris-HCl pH 8.8
Method: as §1, §2
Beschleunigende Wirkung von Alkanolen auf die enzymatische Spaltung von N-Tosyl-L-alanin-indoxylester mit Leukozyten in 0.1 M Tris-(hydroxymethyl)-aminomethan-Salzsäure-Puffer pH 8.8 unter Zusatz von SDS bzw. Polylysin mit einem mittleren Molekulargewicht von 14 000 (Messung bei 360 nm).
Konzentrationsabhängigkeit der beschleunigenden Wirkung von n-Undecanol auf die Spaltung von N-Tosyl-L-alanin-indoxylester mit Leukozyten in Gegenwart von 50 µl N-Methylpyrrolidon/Testansatz und 10 µg/Test SDS in 0.1 M Tris-(hydroxymethyl)-aminomethan-Salzsäurepuffer (pH 8.8).

Leukozyten-Enzyme [4] = assay: Activation of leukocyte enzymes, general statement in the description; conditions: statement in words; compared with Hexanol, Heptanol, Octanol, Nonanol, Decanol, Dodecanol, Tridecanol of EP-A 14 929
Method: as §1, §2

[5] = Detergens Poly-L-Lys (mean MW 14 000) 20 µg/Test
[6] = Aktivator 125 µg/Test, SDS 10 µg/Test, Tris-HCl pH 8.8
[7] = Aktivator 125 µg/Test, Zephirol 20 µg/Test, Tris-HCl pH 8.8
[8] = Puffer Borat 0.1 M pH 8.4, Aktivator 0.125 µl bzw. 125 µg je Test, SDS 10 µg/Test
[9] = Puffer Borat 0.1 M pH 8.4, Aktivator 0.125 µl bzw. 125 µg je Test, no detergent
[10] = Puffer Carbonat-Hydrogencarbonat 0.1 M pH 8.4, Aktivator 0.125 µl bzw. 125 µg je Test, SDS 10 µg/Test
[11] = Puffer Phosphat 0.1 M pH 8.4, Aktivator 0.125 µl bzw. 125 µg je Test, SDS 10 µg/Test
[12] = Puffer Tris 0.1 M pH 8.4, Aktivator 0.125 µl bzw. 125 µg je Test, BDTA 20 µg/Test
[13] = Puffer Tris 0.1 M pH 8.4, Aktivator 0.125 µl bzw. 125 µg je Test, Poly-L-Arg (40000) 20 µg/Test
[14] = Puffer Tris 0.1 M pH 8.4, Aktivator 0.125 µl bzw. 125 µg je Test, SDS 10 µg/Test
[15] = Puffer Tris 0.1 M pH 8.4, Aktivator 0.125 µl bzw. 125 µg je Test, no detergent

CCCCCCCCCCCCOS(=O)(=O)O [SDS, Natriumdodecylsulfat]
relative Spaltungsgeschwindigkeit (Leukozyten-Enzyme [1]; Puffer Borat 0.1 M pH 8.4, no activator, detergent SDS alone 10 µg/Test): 2.8 | relative Spaltungsgeschwindigkeit (Leukozyten-Enzyme [1]; Puffer Tris 0.1 M pH 8.4, no activator, detergent SDS alone 10 µg/Test): 0.8

CCCCCCCCCCO [n-Decanol]
relative Spaltungsgeschwindigkeit (Leukozyten-Enzyme [2]; Poly-L-Lys(14000) 20 µg/Test): 4.25 | relative Spaltungsgeschwindigkeit (Leukozyten-Enzyme [2]; Poly-L-Orn(30000) 20 µg/Test): 3.8 | relative Spaltungsgeschwindigkeit (Leukozyten-Enzyme [2]; SDS 10 µg/Test): 1.0 | relative Spaltungsgeschwindigkeit (Leukozyten-Enzyme [2]; no detergent): 1.9 | relative Spaltungsgeschwindigkeit (Leukozyten-Enzyme [3]; [5]): 3.2 | relative Spaltungsgeschwindigkeit (Leukozyten-Enzyme [3]; Detergens SDS 10 µg/Test): 1 | relative Spaltungsgeschwindigkeit (Leukozyten-Enzyme [1]; [6]): 1.0 | relative Spaltungsgeschwindigkeit (Leukozyten-Enzyme [1]; [7]): 1.27 | relative Spaltungsgeschwindigkeit (Leukozyten-Enzyme [1]; Puffer Borat 0.1 M pH 8.4, Aktivator 0.125 µl bzw. 125 µg je Test, Poly-DL-Lys(37000) 20 µg/Test): 3.15 | relative Spaltungsgeschwindigkeit (Leukozyten-Enzyme [1]; [8]): 9.0 | relative Spaltungsgeschwindigkeit (Leukozyten-Enzyme [1]; [9]): 4.9 | relative Spaltungsgeschwindigkeit (Leukozyten-Enzyme [1]; [10]): 5.6 | relative Spaltungsgeschwindigkeit (Leukozyten-Enzyme [1]; [11]): 12.0 | relative Spaltungsgeschwindigkeit (Leukozyten-Enzyme [1]; [12]): 1.05 | relative Spaltungsgeschwindigkeit (Leukozyten-Enzyme [1]; [13]): 3.7 | relative Spaltungsgeschwindigkeit (Leukozyten-Enzyme [1]; [14]): 1 | relative Spaltungsgeschwindigkeit (Leukozyten-Enzyme [1]; [15]): 0.9

CCCCCCCCCCCCO [n-Dodecanol]
relative Spaltungsgeschwindigkeit (Leukozyten-Enzyme [3]; Detergens SDS 10 µg/Test): 0.55 | relative Spaltungsgeschwindigkeit (Leukozyten-Enzyme [1]; [8]): 9.0

CCCCCCCCCO [n-Nonanol]
relative Spaltungsgeschwindigkeit (Leukozyten-Enzyme [1]; [8]): 3.0 | relative Spaltungsgeschwindigkeit (Leukozyten-Enzyme [1]; [14]): 0.6

CCCCCCCCCCCCCO [n-Tridecanol]
relative Spaltungsgeschwindigkeit (Leukozyten-Enzyme [3]; Detergens SDS 10 µg/Test): 0.75

CCCCCCCCCCCO [n-Undecanol]
relative Spaltungsgeschwindigkeit (Leukozyten-Enzyme [2]; Poly-L-Lys(14000) 20 µg/Test): 8.2 | relative Spaltungsgeschwindigkeit (Leukozyten-Enzyme [2]; Poly-L-Orn(30000) 20 µg/Test): 7.4 | relative Spaltungsgeschwindigkeit (Leukozyten-Enzyme [2]; SDS 10 µg/Test): 2.5 | relative Spaltungsgeschwindigkeit (Leukozyten-Enzyme [2]; no detergent): 3.1 | rel.Geschwindigk.der Enzymreaktion, bezogen auf Decanol (0,125 µl/Test) = 1 (Leukozyten-Enzyme [3]; 0,2 µl Undecanol in test solution): 2,1 | rel.Geschwindigk.der Enzymreaktion, bezogen auf Decanol (0,125 µl/Test) = 1 (Leukozyten-Enzyme [3]; 0,5 µl Undecanol in test solution): 3,1 | rel.Geschwindigk.der Enzymreaktion, bezogen auf Decanol (0,125 µl/Test) = 1 (Leukozyten-Enzyme [3]; 0,25 µl Undecanol in test solution): 3,2 | rel.Geschwindigk.der Enzymreaktion, bezogen auf Decanol (0,125 µl/Test) = 1 (Leukozyten-Enzyme [3]; 0,025 µl Undecanol in test solution): 0,65 | rel.Geschwindigk.der Enzymreaktion, bezogen auf Decanol (0,125 µl/Test) = 1 (Leukozyten-Enzyme [3]; 0,075 µl Undecanol in test solution): 1,5 | rel.Geschwindigk.der Enzymreaktion, bezogen auf Decanol (0,125 µl/Test) = 1 (Leukozyten-Enzyme [3]; 0,125 µl Undecanol in test solution): 1,75 | relative Spaltungsgeschwindigkeit (Leukozyten-Enzyme [3]; [5]): 6.5 | relative Spaltungsgeschwindigkeit (Leukozyten-Enzyme [3]; Detergens SDS 10 µg/Test): 1.85 | Aktivierung der Leukozyten-Enzyme (Leukozyten-Enzyme [4]): stark aktiviert; also recorded: alle vorgenannten Alkohole in der Aktivierung der Leukozyten- Enzyme übertrifft | relative Spaltungsgeschwindigkeit (Leukozyten-Enzyme [1]; [6]): 3.3 | relative Spaltungsgeschwindigkeit (Leukozyten-Enzyme [1]; [7]): 2.6 | relative Spaltungsgeschwindigkeit (Leukozyten-Enzyme [1]; [8]): 15.2 | relative Spaltungsgeschwindigkeit (Leukozyten-Enzyme [1]; [9]): 5.6 | relative Spaltungsgeschwindigkeit (Leukozyten-Enzyme [1]; [10]): 6.6 | relative Spaltungsgeschwindigkeit (Leukozyten-Enzyme [1]; [11]): 17.3 | relative Spaltungsgeschwindigkeit (Leukozyten-Enzyme [1]; [12]): 3.55 | relative Spaltungsgeschwindigkeit (Leukozyten-Enzyme [1]; [13]): 6.55 | relative Spaltungsgeschwindigkeit (Leukozyten-Enzyme [1]; [14]): 2.1 | relative Spaltungsgeschwindigkeit (Leukozyten-Enzyme [1]; [15]): 1.7
